Entries after “also recorded” stand apart in the source; their conditions may differ. Where two headings read alike, the source gives them in different places.
Columns and labels:
[1] = test system: colorectal cancer cells; test: colorectal cancer cells: survivin and cytotoxicity; type: cell-based
From the text: (§1) Cancer. The importance of Wnt signaling in colorectal cancer is undisputed. Applicant's investigation on the therapeutic utility of ICG-001 therefore quite naturally began with colon cancer.

[2] = biological target: CBP (Homo sapiens, UniProt Q92793); test: binding to coactivator CBP (affinity chromatography; binding and isothermal calorimetry)
Chain of CBP (Q92793 whole entry): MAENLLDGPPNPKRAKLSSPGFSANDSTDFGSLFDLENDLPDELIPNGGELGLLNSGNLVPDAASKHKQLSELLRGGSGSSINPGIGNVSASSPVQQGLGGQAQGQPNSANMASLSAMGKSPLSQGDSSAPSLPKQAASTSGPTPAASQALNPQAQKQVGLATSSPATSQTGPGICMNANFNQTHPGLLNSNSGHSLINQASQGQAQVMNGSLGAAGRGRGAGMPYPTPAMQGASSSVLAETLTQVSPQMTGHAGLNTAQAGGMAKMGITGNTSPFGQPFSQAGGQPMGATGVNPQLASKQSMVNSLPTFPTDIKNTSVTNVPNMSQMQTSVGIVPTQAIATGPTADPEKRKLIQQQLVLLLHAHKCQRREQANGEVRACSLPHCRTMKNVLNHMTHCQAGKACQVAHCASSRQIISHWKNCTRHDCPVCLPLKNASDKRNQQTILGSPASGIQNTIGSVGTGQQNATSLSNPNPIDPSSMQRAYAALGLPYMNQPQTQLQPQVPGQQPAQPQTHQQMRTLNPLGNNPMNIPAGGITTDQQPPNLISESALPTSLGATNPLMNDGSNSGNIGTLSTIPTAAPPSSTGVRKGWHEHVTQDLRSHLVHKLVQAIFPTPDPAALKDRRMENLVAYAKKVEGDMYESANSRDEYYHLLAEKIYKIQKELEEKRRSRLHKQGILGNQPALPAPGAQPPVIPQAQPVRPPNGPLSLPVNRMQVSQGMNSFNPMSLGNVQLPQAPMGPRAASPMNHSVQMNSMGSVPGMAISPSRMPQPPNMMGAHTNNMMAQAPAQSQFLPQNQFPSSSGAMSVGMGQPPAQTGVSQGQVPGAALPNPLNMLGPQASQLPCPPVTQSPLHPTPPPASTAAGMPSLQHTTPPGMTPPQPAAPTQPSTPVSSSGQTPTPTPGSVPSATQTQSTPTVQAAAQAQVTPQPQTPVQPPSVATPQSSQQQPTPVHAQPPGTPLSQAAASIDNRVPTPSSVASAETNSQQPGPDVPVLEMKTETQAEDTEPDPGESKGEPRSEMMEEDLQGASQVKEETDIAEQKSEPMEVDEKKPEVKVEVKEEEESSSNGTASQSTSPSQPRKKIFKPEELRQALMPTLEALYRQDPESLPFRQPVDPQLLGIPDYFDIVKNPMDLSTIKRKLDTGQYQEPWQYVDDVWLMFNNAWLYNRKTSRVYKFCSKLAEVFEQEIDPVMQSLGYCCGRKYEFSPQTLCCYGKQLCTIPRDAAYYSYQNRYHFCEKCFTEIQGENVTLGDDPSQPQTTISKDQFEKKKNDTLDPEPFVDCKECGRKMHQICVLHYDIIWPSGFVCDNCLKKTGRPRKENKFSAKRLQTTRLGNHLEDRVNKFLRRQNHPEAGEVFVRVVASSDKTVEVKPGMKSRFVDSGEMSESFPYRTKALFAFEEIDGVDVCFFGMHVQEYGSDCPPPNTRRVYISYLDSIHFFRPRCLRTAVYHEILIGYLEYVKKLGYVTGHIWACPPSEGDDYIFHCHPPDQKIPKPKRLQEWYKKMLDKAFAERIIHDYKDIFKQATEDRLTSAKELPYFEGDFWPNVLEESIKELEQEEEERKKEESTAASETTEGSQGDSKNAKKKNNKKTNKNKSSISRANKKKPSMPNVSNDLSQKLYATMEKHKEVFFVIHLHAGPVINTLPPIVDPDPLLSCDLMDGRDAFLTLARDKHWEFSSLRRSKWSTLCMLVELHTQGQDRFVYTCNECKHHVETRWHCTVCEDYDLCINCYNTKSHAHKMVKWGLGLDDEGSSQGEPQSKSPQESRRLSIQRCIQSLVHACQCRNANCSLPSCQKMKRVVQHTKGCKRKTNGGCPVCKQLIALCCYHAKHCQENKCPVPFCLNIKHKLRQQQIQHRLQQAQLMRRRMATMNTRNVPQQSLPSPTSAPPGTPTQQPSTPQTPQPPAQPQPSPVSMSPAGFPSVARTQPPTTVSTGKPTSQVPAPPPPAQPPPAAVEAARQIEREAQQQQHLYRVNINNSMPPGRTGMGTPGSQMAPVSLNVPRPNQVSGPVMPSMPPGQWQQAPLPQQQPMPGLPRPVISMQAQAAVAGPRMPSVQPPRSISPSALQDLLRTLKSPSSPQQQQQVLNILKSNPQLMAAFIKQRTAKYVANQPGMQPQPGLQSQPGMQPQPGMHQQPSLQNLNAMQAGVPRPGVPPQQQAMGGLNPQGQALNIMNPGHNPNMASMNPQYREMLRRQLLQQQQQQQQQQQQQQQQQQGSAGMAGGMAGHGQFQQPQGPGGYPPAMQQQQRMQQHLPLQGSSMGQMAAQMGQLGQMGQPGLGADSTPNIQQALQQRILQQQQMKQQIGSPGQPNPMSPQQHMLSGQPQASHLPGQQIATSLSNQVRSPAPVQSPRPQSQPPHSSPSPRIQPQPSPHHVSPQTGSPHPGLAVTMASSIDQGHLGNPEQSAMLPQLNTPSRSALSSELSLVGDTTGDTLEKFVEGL
From the text: ICG-001. Applicant's pharmacologic tools were identified using cell-based forward chemical genomic screens of small molecule secondary structure template chemical libraries (22).
(§2) Applicant next mapped the binding domains between CBP and beta-catenin, as well as between p300 and beta-catenin. The C-terminal trans-activating region of beta-catenin (647-781) interacted with the same 1-111 amino acids of both CBP and p300 (23). However, only the interaction between CBP and beta-catenin was disrupted by ICG-001, and not the p300/beta-catenin interaction.

[3] = test system: aquaporin 1; test: ex vivo human skin assay, qRT-PCR of aquaporin 1; type: cell-based; settings: 24 hrs; 5 uM ICG-001, 5 uM methylated ICG-001, 1 ug/ml RA
Method: (§3) Methods. Ex Vivo human skin assay culture conditions were based upon a paper by Varani J et al Experimental and Molecular Pathology, 2004.
(§4) Briefly, human skin (surgical waste from plastic surgery procedures) was obtained and the subcutaneous layer of fat was trimmed manually with a scalpel. The skin was then cut into small fragments about 2 mm square and placed in 6 well plates. 1 ml of keratinocyte culture medium (Gibco 10724-011) with 1% P/S (penstrep antibiotic) was added to each well. The epidermis, bathed in media was placed facing up. On the next day (overnight culture in the media above), the skin fragments were transferred to fresh wells that contained either 5 uM ICG-001, 5-uM methylated ICG-001 or 1 ug/ml of retinoic acid (RA). After 24 hrs, skin samples in culture were removed for RNA isolation and qRT-PCR analysis of genes of interest (e.g. elastin (a gene involved in skin appearance and pliability (e.g., wrinkling) and aquaporin 1, which is involved with hydration.

[4] = test system: elastin; test: ex vivo human skin assay, qRT-PCR of elastin; type: cell-based; settings: 24 hrs; 5 uM ICG-001, 5 uM methylated ICG-001, 1 ug/ml RA
Method: as §3, §4

[5] = test system: Min mouse; test: Min mouse polyps; settings: in vivo
From the text: as §1

[6] = test system: rat type II lung epithelial cells; test: TGF-β1-induced EMT genes in rat type II lung epithelial cells; type: cell-based
From the text: Fibrosis. Idiopathic pulmonary fibrosis (IPF)/usual interstitial pneumonia (UIP), the most common of the idiopathic interstitial pneumonias, is a devastating, progressive disorder characterized by excessive fibroblast proliferation and extracellular matrix remodeling leading to lung destruction. There is currently no effective therapy for this uniformly fatal disease. An emerging paradigm proposes a central role for alveolar epithelial cell injury and dysregulated repair in the pathogenesis of IPF. Injury to the epithelium is thought to initiate a cascade of fibroblast activation and matrix deposition, which in predisposed hosts fails to resolve as it would in the course of normal wound repair. Epithelial cells undergo excessive apoptosis, whereas fibroblasts are less amenable to apoptosis and manifest increased survival. The well-characterized model of bleomycin-induced lung injury has been extensively used to investigate potential pathways involved in the pathogenesis of pulmonary fibrosis and to explore therapeutic approaches.

[7] = test system: SW620 xenograft; test: nude mouse SW620 xenograft model of colon cancer; settings: in vivo
From the text: as §1

[8] = test system: cerebral deposition of Aβ; test: Aβ deposition in penta-transgenic mouse model of Alzheimer's disease; type: in vivo; settings: 50 mg/kg/day, 2 months, immunohistochemistry, vs saline
Method: Applicant utilized a penta-transgenic mouse model of AD, which normally develops massive cerebral deposition of Aβ starting at 6 weeks of age. These mice were treated with either (A) ICG-001 (50 mg/kg/day) or (B) saline for 2 months. […] However, the effects of PS-1 mutations on the stability of beta-catenin, TCF/beta-catenin signaling, and thereby its potential role in AD remain controversial. […] In the CNS, EpB2 expression is associated with axonal guidance (16). […] In initial in vivo studies, applicant treated penta-transgenic mice that over express mutant APP(695) (Swedish (K670N,M671L), Florida ([…]) and London (V717I)) and PS-1 (M146L and L286V) mutations with ICG-001 for 2 months (months 2-4). These mice normally develop massive cerebral deposition of Aβ starting at 6 weeks of age.

[9] = test system: mitotic cells in the ventricular zone (VZ); test: symmetric versus asymmetric divisions (Par3 distribution) in the ventricular zone of mouse embryos; type: in vivo; settings: topical or oral administration to pregnant mice
From the text: Taking advantage of the ready uptake and penetration through the placental barrier of applicant's small molecule Wnt modulators, applicant designed a series of experiments to investigate symmetric versus asymmetric divisions in the ventricular zone (VZ) of the brain during mouse embryonic development. Timed pregnant mice were topically treated for various time periods (1-3 days) with DMSO (vehicle control), the CBP/catenin antagonist ICG-001 or the p300/catenin antagonist IQ-1. Using a previously described protocol (56), the localization of […] (Par3) and DNA was examined in mitotic cells in the VZ. Par3 distributes symmetrically in cells that divide symmetrically and asymmetrically in cells that divide asymmetrically, whereas the DNA distributes symmetrically between the 2 cells. Using fluorescence microscopy, the percentage of mitotic cells dividing symmetrically or asymmetrically could be quantified. […] Antagonizing the CBP/catenin interaction with ICG-001 had no apparent effect yielding similarly, approximately 21% asymmetric divisions. […] Importantly, this decrease in asymmetric divisions upon treatment with IQ-1 could be rescued back essentially to control levels (i.e. ˜21%) by treatment with a 2-fold excess of ICG-001. Even further divergence in symmetric versus asymmetric divisions could be seen upon prolonged treatments. For example, treatment with IQ-1 (i.e., antagonizing p300/catenin interaction leading to increased usage of CBP) for 3 days (E13.5-16.5) decreased asymmetric divisions compared to control from 31% to 7%. […] This reporter mouse expresses EGFP, driven by the Tis21 promoter, in cells that have undergone neurogenic differentiative divisions.
For example, Bultje et al (Bultje R Neuron 63, 189-202, 2009) describe an assay to measure asymmetric distributions in the ventricular zone (vz) to evaluate asymmetric divisions during neurogenesis. Essentially this involves treating the animal (either adult or in utero) for a set period of time with compounds (either p.o., s.c., i.v. or topically) with compounds and then sacrificing the animal and examining the Par3 distribution (e.g., via immunohistochemistry) in mitotic cells vs. DNA distribution (e.g., using DAPI staining) Par3 distributes equally among the two daughter cells during symmetric division and unequally (essentially all in one daughter cell) during asymmetric differentiation.

[10] = test system: bleomycin-induced pulmonary fibrosis; test: bleomycin-induced lung injury / pulmonary fibrosis; type: in vivo, mouse
[11] = biological target: p300/beta-catenin interaction (Homo sapiens, UniProt Q09472); test: disruption of p300/beta-catenin interaction; type: binding
Chain of p300/beta-catenin interaction (Q09472 1-111): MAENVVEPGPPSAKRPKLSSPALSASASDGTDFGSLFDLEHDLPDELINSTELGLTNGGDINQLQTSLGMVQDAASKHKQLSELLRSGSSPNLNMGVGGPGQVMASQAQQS
From the text: as §2

## O=C1[C@H](Cc2ccc(O)cc2)N2C(=O)CCN(C(=O)NCc3ccccc3)[C@H]2CN1Cc1cccc2ccccc12 [ICG-001]
[1]
  survivin expression: down-regulated survivin
[1]; colorectal cancer cells vs normal colonic epithelial cells
  cytotoxicity: selective cytotoxicity in colorectal cancer cells, but not in normal colonic epithelial cells
[2]; affinity chromatography approach, read-out: binding affinity to the coactivator CBP
  Kd: ~1 nM
[2]; binding and isothermal calorimetry studies, read-out: binding affinity to the N-terminus of CBP
  Kd: ~1 nM
[3]
  expression of aquaporin 1: increase
[4]
  expression of elastin: increase
[5]
  polyps: reducing polyps
[6]
  TGF-β1-induced up-regulation of α-SMA and type I collagen: prevents the TGF-β1-induced up-regulation of α-SMA and type I collagen
[7]
  tumor growth: reducing tumor growth
[8]
  amyloid plaque formation / Aβ staining: significant decrease in amyloid plaque formation; also recorded: decrease in Aβ staining
[9]
  effect on number of asymmetric divisions: does not affect the number of asymmetric divisions
[10]; BAT-gal transgenic mice
  bleomycin-induced lacZ expression in airway and alveolar epithelium: significantly reduced
[10]; bleomycin model in vivo in the mouse and fibroblasts from IPF patients in vitro
  expression of S100A4/FSP-1: significantly decreased the expression of S100A4/FSP-1
[10]; mouse, in vivo
  established fibrosis: could reverse established fibrosis
[10]; pretreatment
  severity of pulmonary fibrosis: significantly reduced the severity of pulmonary fibrosis
[11]
  effect on the p300/beta-catenin interaction: without affecting the p300/beta-catenin interaction
